Measured values reported in ChEMBL document CHEMBL1201862, “PubChem BioAssay data set” (2004).
Values belong to the compound of their own block, whether it stands above or below them. The source made the active and inactive calls.

Legend:
[1] = target: T1, Rac GTPase-activating protein 1 (Homo sapiens, UniProt Q9H0H5); experiment: MgcRacGAP GTPase-activating activity inhibitors, confirmation, biochemical, ADP Hunter fluorescence, primary and confirmatory (AID 624330); type: functional
T1 sequence (Q9H0H5 whole entry): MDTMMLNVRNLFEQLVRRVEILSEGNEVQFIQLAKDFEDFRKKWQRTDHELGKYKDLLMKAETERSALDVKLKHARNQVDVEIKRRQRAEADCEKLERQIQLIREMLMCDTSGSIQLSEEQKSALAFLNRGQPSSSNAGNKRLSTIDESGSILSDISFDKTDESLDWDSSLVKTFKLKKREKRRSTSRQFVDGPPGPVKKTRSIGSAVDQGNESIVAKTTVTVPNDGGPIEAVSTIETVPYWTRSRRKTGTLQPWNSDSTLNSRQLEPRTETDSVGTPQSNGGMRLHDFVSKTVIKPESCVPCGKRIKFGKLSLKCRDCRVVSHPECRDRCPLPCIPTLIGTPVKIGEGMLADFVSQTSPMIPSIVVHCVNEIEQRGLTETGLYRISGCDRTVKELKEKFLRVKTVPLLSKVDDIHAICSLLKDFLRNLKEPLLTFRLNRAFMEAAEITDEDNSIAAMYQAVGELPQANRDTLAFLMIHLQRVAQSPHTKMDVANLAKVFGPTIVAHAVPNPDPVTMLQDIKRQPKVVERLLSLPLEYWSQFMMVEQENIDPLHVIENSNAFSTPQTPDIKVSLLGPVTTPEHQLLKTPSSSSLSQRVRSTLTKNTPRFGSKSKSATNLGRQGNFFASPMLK

[2] = target: T2, Corticotropin-releasing factor receptor 2/Corticotropin-releasing factor-binding protein (Homo sapiens, UniProt P24387+Q13324); experiment: activators of CRF receptor 2 with binding protein – uHTS hits, confirmation (AID 602473); type: functional; conditions: read-out: EC50_Mean
T2 sequence (Q13324 whole entry): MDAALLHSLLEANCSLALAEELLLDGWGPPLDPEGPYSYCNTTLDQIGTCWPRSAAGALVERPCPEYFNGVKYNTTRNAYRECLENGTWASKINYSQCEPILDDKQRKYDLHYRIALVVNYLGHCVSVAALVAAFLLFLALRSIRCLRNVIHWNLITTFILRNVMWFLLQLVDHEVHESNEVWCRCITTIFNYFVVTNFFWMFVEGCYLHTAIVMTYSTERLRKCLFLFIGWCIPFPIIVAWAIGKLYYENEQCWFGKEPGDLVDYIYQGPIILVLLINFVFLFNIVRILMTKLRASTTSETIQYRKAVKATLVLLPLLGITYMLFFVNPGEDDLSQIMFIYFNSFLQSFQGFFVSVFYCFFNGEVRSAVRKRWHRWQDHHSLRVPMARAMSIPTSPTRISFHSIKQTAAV
T2 sequence (P24387 whole entry): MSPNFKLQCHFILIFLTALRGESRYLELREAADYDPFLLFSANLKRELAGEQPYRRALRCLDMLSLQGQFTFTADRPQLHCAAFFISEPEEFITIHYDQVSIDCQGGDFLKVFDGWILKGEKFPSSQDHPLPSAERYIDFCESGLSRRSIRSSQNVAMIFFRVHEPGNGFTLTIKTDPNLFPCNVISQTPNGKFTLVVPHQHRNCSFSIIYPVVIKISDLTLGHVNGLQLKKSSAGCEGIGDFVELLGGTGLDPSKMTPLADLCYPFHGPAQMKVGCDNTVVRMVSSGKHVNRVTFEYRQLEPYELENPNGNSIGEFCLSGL

Cytochrome P450 2C19 = Cytochrome P450 2C19 (Homo sapiens, UniProt P33261); experiment: Cytochrome panel assay with activity outcomes. Panel member name: p450-cyp2c19 Compounds with AC50 equal or less than 10 uM are considered active; type: functional; conditions: read-out: AC50
Sequence of Cytochrome P450 2C19 (P33261 whole entry): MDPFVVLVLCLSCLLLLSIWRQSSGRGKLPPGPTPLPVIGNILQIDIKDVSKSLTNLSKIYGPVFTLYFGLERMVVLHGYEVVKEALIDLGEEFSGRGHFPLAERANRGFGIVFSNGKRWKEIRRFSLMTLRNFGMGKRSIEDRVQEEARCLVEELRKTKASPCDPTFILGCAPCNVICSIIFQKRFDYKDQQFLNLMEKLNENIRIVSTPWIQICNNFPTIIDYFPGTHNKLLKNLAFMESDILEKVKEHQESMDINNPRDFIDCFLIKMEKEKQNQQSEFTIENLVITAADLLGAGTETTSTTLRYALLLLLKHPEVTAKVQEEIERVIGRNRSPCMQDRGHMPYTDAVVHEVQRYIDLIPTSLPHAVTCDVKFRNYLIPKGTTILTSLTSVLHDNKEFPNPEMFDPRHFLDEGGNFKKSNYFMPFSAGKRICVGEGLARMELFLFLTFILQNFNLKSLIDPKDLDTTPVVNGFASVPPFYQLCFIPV

Cytochrome P450 1A2 = target: T3, Cytochrome P450 1A2 (Homo sapiens, UniProt P05177);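 note: PubChem cytochrome P450 panel assay, CYP1A2 panel member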
T3 sequence (P05177 whole entry): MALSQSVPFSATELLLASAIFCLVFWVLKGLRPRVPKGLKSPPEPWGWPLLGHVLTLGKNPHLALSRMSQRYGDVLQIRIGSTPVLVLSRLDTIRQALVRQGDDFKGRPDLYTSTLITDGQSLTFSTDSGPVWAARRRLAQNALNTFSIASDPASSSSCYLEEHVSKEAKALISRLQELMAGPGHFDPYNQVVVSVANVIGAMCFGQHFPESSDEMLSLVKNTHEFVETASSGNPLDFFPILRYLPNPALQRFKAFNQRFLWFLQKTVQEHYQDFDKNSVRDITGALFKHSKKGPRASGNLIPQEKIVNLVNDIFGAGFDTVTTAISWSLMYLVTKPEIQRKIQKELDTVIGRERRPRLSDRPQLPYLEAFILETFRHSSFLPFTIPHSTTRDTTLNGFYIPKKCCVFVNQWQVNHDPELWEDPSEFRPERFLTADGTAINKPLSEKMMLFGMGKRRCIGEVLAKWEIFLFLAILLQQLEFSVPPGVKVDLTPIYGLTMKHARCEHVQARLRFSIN

Cytochrome P450 2C9 = Cytochrome P450 2C9 (Homo sapiens, UniProt P11712)
Sequence of Cytochrome P450 2C9 (P11712 whole entry): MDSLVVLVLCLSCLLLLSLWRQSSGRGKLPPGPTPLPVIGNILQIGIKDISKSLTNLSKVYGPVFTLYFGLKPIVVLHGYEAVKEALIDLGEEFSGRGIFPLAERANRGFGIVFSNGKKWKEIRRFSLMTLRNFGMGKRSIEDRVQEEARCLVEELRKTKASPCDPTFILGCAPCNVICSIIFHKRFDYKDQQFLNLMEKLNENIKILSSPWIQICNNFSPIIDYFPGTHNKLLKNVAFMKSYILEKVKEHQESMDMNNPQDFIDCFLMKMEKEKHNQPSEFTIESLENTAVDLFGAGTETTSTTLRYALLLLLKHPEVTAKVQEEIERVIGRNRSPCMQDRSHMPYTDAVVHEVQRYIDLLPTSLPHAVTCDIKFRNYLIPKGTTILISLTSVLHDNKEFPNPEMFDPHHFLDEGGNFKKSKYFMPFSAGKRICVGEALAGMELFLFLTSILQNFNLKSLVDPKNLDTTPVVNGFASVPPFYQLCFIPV

Cytochrome P450 2D6 = Cytochrome P450 2D6 (Homo sapiens, UniProt P10635);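 note: CYP2D6 member of a cytochrome P450 panel assay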
Sequence of Cytochrome P450 2D6 (P10635 whole entry): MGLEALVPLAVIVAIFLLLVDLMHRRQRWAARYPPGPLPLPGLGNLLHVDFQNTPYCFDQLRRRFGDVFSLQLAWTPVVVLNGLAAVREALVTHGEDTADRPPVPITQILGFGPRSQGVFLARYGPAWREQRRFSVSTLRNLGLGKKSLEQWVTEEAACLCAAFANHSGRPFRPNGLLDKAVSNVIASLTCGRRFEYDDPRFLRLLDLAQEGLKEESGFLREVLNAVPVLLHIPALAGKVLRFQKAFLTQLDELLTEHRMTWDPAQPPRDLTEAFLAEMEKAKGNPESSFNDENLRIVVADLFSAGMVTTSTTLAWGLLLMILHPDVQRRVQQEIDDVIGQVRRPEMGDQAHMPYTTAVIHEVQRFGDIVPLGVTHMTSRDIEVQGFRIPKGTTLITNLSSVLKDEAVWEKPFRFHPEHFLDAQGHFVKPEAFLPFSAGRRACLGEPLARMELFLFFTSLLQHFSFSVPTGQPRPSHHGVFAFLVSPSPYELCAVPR

Cytochrome P450 3A4 = Cytochrome P450 3A4 (Homo sapiens, UniProt P08684);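 note: CYP3A4 tested as one member of a cytochrome P450 panel screen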
Sequence of Cytochrome P450 3A4 (P08684 whole entry): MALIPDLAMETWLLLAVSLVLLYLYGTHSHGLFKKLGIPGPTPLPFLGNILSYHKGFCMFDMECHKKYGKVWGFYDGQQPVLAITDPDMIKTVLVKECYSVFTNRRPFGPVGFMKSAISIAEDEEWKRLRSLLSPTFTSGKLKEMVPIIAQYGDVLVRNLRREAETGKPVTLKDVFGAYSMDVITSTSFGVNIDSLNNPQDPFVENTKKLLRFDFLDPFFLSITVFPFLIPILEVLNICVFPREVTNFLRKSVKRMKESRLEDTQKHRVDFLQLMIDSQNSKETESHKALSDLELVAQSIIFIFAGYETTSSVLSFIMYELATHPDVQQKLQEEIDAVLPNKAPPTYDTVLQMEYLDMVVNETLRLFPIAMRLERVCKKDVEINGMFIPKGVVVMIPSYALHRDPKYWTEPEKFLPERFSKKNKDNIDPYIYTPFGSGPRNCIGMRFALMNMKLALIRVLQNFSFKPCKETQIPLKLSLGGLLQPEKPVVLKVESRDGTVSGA

[3] = tested on: Streptococcus sp. 'group A'; experiment: growth inhibition of control SK(-) GAS strain, dose response, counter-screen for streptokinase expression inhibitor project, luminescence, kanamycin, BacTiterGlo, confirmation (AID 1900); type: functional, organism-based
Streptococcus = experiment: Group A Streptococcus viability loss, dose response, counter-screen for streptokinase expression inhibitor project, luminescence, BacTiterGlo (AID 1915); type: functional, organism-based;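 note: potency for reduction of bacterial viability or growth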
[4] = Luminescence Cell-Based Dose Retest to Confirm Inhibitors of Cancer Stem Cells. [Related pubchem assays (depositor defined):AID2717, AID2721]; type: functional; conditions: Homo sapiens

Structure (SMILES): COC(=O)c1[nH]c2ccc(Cl)cc2c1NC(=O)Oc1ccccc1
IC50 [1]: 19.8 µM (active)

Structure (SMILES): CCCc1nnc(NC(=O)Cn2c(=O)oc3cc(Br)ccc32)s1
EC50 [2]: 9.87 µM (active)

Structure (SMILES): COc1cc(/C=C/C(=O)OCC(=O)NC2CCS(=O)(=O)C2)ccc1O (stereo not drawn)
IC50 [1]: 47.1 µM (active)

Structure (SMILES): CCCCCCC[n+]1ccc(-c2cc[n+](CCCCCCC)cc2)cc1
AC50 (Cytochrome P450 2C19): 10 µM (inconclusive)
AC50 (Cytochrome P450 1A2): 31.6 µM (inconclusive)
AC50 (Cytochrome P450 2C9): 39.8 µM (inconclusive)

Structure (SMILES): CC(Oc1ccc(Cl)cc1Cl)C(=O)/C=C/N(C)C (stereo not drawn)
AC50 (Cytochrome P450 2D6): 14.1 µM (inconclusive)
AC50 (Cytochrome P450 3A4): 25.1 µM (inconclusive)
AC50 (Cytochrome P450 2C9): 12.6 µM (inconclusive)

Structure (SMILES): O=C(NCCC1=CCCCC1)C1CCCN(c2nc3ccccc3o2)C1 (stereo not drawn)
AC50 (Cytochrome P450 2D6): 14.1 µM (inconclusive)
AC50 (Cytochrome P450 1A2): 15.8 µM (inconclusive)

Structure (SMILES): CN1/C(=C/C=C(/C#N)C(N)=O)C(C)(C)c2ccccc21
AC50 (Cytochrome P450 3A4): 22.4 µM (inconclusive)
AC50 (Cytochrome P450 2C9): 28.2 µM (inconclusive)

Structure (SMILES): Cc1ccc(CNC(=O)C2(NC(=O)Nc3ccc(C)cc3)CCCCC2)cc1
AC50 (Cytochrome P450 2C19): 1.78 µM (inconclusive)
AC50 (Cytochrome P450 2C9): 3.55 µM (inconclusive)

Structure (SMILES): COc1ccc(-c2sc3ccc(OC)cc3c2C#CCCO)cc1
EC50 [3]: 7.3 µM (active)
EC50 (Streptococcus): 9.32 µM (active)
AC50 [4]: 2.88 µM (active)

Structure (SMILES): O=C(NCc1ccco1)c1cc(C(=O)C2CCCCC2)c[nH]1
AC50 (Cytochrome P450 2C19): 14.1 µM (inconclusive)
AC50 (Cytochrome P450 2C9): 8.91 µM (inconclusive)

Structure (SMILES): CN1CCc2nc3sc(C(=O)NC(C)(C)C)c(N)c3cc2C1
AC50 (Cytochrome P450 2C19): 31.6 µM (inconclusive)
AC50 (Cytochrome P450 1A2): 14.1 µM (inconclusive)

Results, then the compound that gave them:

IC50 [1]: 85.6 µM (active)
Structure (SMILES): COc1ccc(/C=N/NC(=O)c2cnccn2)cc1O

AC50 (Cytochrome P450 1A2): 1.26 µM (inconclusive)
AC50 (Cytochrome P450 3A4): 15.8 µM (inconclusive)
Structure (SMILES): O=C(CSc1ccc(C(F)(F)F)cc1[N+](=O)[O-])Nc1ccccc1

AC50 (Cytochrome P450 2C9): 0.794 µM (inconclusive)
Structure (SMILES): Cc1cccc(CNc2ccnc(-c3ccccc3Cl)n2)c1

AC50 (Cytochrome P450 2C19): 15.8 µM (inconclusive)
AC50 (Cytochrome P450 2D6): 39.8 µM (inconclusive)
AC50 (Cytochrome P450 3A4): 25.1 µM (inconclusive)
Structure (SMILES): CN(C)c1ccc(-c2nccc(NCCN3CCOCC3)n2)cc1

AC50 (Cytochrome P450 2C19): 0.501 µM (inconclusive)
AC50 (Cytochrome P450 3A4): 20 µM (inconclusive)
AC50 (Cytochrome P450 2C9): 14.1 µM (inconclusive)
Structure (SMILES): Cc1ccc(OCC(=O)NNC(=O)C2CCN(c3ncccn3)CC2)cc1

IC50 [1]: 89.3 µM (active)
Structure (SMILES): CN(Cc1ccccc1)Cc1c(O)ccc2ccccc12

IC50 [1]: 109 µM (active)
Structure (SMILES): COc1ccc(CN2CCCC(C(=O)N3CCCC3)C2)cc1 (stereo not drawn)

EC50 [2]: 8.2 µM (active)
Structure (SMILES): COc1ccccc1NS(=O)(=O)c1cc(C(=O)NCCC(C)C)ccc1F

AC50 (Cytochrome P450 2C19): 0.00631 µM (inconclusive)
AC50 (Cytochrome P450 3A4): 3.98 µM (inconclusive)
AC50 (Cytochrome P450 2C9): 0.316 µM (inconclusive)
Structure (SMILES): C/C(CCN1CCc2nc(-c3ccccc3)c(-c3ccccc3)cc2C1)=N\O[C@@H](C)c1cc(-c2c(C)cc(C)cc2C)no1

AC50 (Cytochrome P450 1A2): 12.6 µM (inconclusive)
AC50 (Cytochrome P450 3A4): 25.1 µM (inconclusive)
Structure (SMILES): COc1ccc(-n2c(=O)c(-c3cc(F)cc(F)c3)nc3cnc(N4CCNCC4)nc32)cc1

IC50 [1]: 110 µM (active)
Structure (SMILES): COC(=O)c1ccc(C(=O)OCCCc2nc3cc(N)ccc3[nH]2)cc1

AC50 (Cytochrome P450 2C9): 1.78 µM (inconclusive)
Structure (SMILES): CN(C)S(=O)(=O)c1ccc(C(=O)Nc2ccc(CN3CCCC3)cc2)cc1

IC50 [1]: 83.6 µM (active)
Structure (SMILES): CCc1cc(-c2n[nH]cc2-c2nc3ccccc3n2C)c(O)cc1O
